Laboratory results reported in US12544359B2, “1-aminosulfonyl-2-carboxypyrrole derivatives as metallo-beta-lactamase inhibitors” (INFEX Therapeutics Limited, priority 2019, dated 2026).
Where a name gives a salt, the structure may show the parent alone.

Assays:
NDM-1 = NDM-1 (Klebsiella pneumoniae, UniProt C7C422); assay: metallo-β-lactamase inhibition assay (nitrocefin); format: biochemical; conditions: 1.5 nM NDM-1, 100 μM nitrocefin, 37° C., pH 7.5
Protocol: Compounds of the invention were tested in a metallo-β-lactamase inhibition assay to investigate mechanism of action of the compounds. Results are reported as the concentration of test article required to inhibit enzyme activity by 50% (IC50).
Inhibition of metallo-β-lactamase enzyme function was performed at 37° C. in buffer at pH 7.5 (50 mM HEPES, 150 mM NaCl, 0.1 mM ZnSO4, 20 μg/mL PEG4000), containing 1.5 nM NDM-1, 100 μM nitrocefin, and a range of concentrations of compound. Absorbance at 490 nm was measured using a BMG LABTECH FLUOstar Omega microplate reader every minute for 30 minutes. IC50s were determined from the average increase in OD per minute versus the Log 10 concentration of compound using GraphPad Prism.

[1] = Cytotoxicity Assay (CellTiter-Glo); format: cell-based; conditions: human, Hep G2 cells (ATCC HB-8065); 24 h exposure; read-out: HepG2 CC50
Protocol: Cytotoxicity was evaluated in human Hep G2 cells (ATCC HB-8065) seeded at a density of 2×10^5 cells per well and incubated for 24 h at 37° C., 5% CO2. Cells were exposed to a doubling dilution series of test article. After 24 h exposure, the viability of the cells was determined using CellTiter-Glo® (Promega, WI, USA) according to the manufacturer's instructions. Results are reported as the concentration of test article required to reduce cell viability by 50% (CC50).

NDM-1, sequence (C7C422 whole entry, looked up, species assumed): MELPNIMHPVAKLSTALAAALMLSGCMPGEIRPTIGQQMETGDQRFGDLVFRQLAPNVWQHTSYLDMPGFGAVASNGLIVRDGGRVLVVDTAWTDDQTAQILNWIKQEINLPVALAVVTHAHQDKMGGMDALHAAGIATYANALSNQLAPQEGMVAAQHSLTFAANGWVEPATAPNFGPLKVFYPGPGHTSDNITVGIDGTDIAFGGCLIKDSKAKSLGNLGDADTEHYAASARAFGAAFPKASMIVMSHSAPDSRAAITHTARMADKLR

Row | SMILES | IC50 (NDM-1) | CC50 at 24 h [1]
1 | CNC(=O)c1cccc(-c2ccn(S(N)(=O)=O)c2C(=O)O)c1 [Example 1, 3-[3-(Methylcarbamoyl)phenyl]-1-sulfamoyl-pyrrole-2-carboxylic acid] | 223 nM | > 256 µg/mL
2 | CN(C)C(=O)c1ccc(-c2ccn(S(N)(=O)=O)c2C(=O)O)cc1 [Example 2, 3-[4-(Dimethylcarbamoyl)phenyl]-1-sulfamoyl-pyrrole-2-carboxylic acid] | 111 nM | > 256 µg/mL
3 | NS(=O)(=O)n1ccc(-c2ccc(C(=O)NC3CC3)cc2)c1C(=O)O [Example 3, 3-[4-(Cyclopropyl-carbamoyl)phenyl]-1-sulfamoyl-pyrrole-2-carboxylic acid] |  | > 256 µg/mL
4 | N#CCNC(=O)c1ccc(-c2ccn(S(N)(=O)=O)c2C(=O)O)cc1 [Example 6, 3-[4-(Cyanomethyl-carbamoyl)phenyl]-1-sulfamoyl-pyrrole-2-carboxylic acid] | 843 nM | > 256 µg/mL
5 | NS(=O)(=O)n1ccc(-c2ccc(C(=O)NCC(=O)O)cc2)c1C(=O)O [Example 7, 3-[4-(Carboxymethyl-carbamoyl)phenyl]-1-sulfamoyl-pyrrole-2-carboxylic acid] | 650 nM | > 256 µg/mL
6 | NC(=O)CNC(=O)c1ccc(-c2ccn(S(N)(=O)=O)c2C(=O)O)cc1 [Example 8, 3-[4-[(2-Amino-2-oxo-ethyl)carbamoyl]phenyl]-1-sulfamoyl-pyrrole-2-carboxylic acid] | 405 nM | > 128 µg/mL
7 | CN(C)CCNC(=O)c1ccc(-c2ccn(S(N)(=O)=O)c2C(=O)O)cc1 [Example 9, 3-[4-[2-(Dimethylamino)ethylcarbamoyl]phenyl]-1-sulfamoyl-pyrrole-2-carboxylic acid] | 373 nM | > 256 µg/mL
8 | CC(=O)NCCNC(=O)c1ccc(-c2ccn(S(N)(=O)=O)c2C(=O)O)cc1 [Example 10, 3-[4-(2-Acetamidoethyl-carbamoyl)phenyl]-1-sulfamoyl-pyrrole-2-carboxylic acid] | 374 nM | > 256 µg/mL
9 | NS(=O)(=O)n1ccc(-c2ccc(C(=O)NCCCO)cc2)c1C(=O)O [Example 11, 3-[4-(3-Hydroxypropyl-carbamoyl)phenyl]-1-sulfamoyl-pyrrole-2-carboxylic acid] | 527 nM | > 256 µg/mL
10 | NS(=O)(=O)n1ccc(-c2ccc(C(=O)NC(CO)CO)cc2)c1C(=O)O [Example 12, 3-[4-[[2-Hydroxy-1-(hydroxymethyl)ethyl]carbamoyl]phenyl]-1-sulfamoyl-pyrrole-2-carboxylic acid] | 1060 nM | > 128 µg/mL
11 | NS(=O)(=O)n1ccc(-c2ccc(C(=O)NC[C@@H](O)CO)cc2)c1C(=O)O [Example 13, 3-[4-[[(2R)-2,3-Dihydroxypropyl]carbamoyl]phenyl]-1-sulfamoyl-pyrrole-2-carboxylic acid] | 566 nM | > 256 µg/mL
12 | NS(=O)(=O)n1ccc(-c2ccc(C(=O)NCCN3CCOCC3)cc2)c1C(=O)O [Example 15, 3-[4-(2-Morpholinoethyl-carbamoyl)phenyl]-1-sulfamoyl-pyrrole-2-carboxylic acid] | 1790 nM | > 256 µg/mL
13 | NS(=O)(=O)n1ccc(-c2ccc(C(=O)NCCN3CCCC3=O)cc2)c1C(=O)O [Example 16, 3-[4-[2-(2-Oxopyrrolidin-1-yl)ethylcarbamoyl]phenyl]-1-sulfamoyl-pyrrole-2-carboxylic acid] | 623 nM | > 256 µg/mL
14 | NS(=O)(=O)n1ccc(-c2ccc(C(=O)NCCN3CCNC3=O)cc2)c1C(=O)O [Example 17, 3-[4-[2-(2-Oxoimidazolidin-1-yl)ethylcarbamoyl]phenyl]-1-sulfamoyl-pyrrole-2-carboxylic acid, ammonium salt] | 394 nM | > 256 µg/mL
15 | NC1CN(C(=O)c2ccc(-c3ccn(S(N)(=O)=O)c3C(=O)O)cc2)C1 [Example 21, 3-[4-(3-Aminoazetidine-1-carbonyl)phenyl]-1-sulfamoyl-pyrrole-2-carboxylic acid] | 78 nM | > 256 µg/mL
16 | NCCNC(=O)c1ccc(-c2ccn(S(N)(=O)=O)c2C(=O)O)cc1 [Example 26, 3-[4-(2-Aminoethyl-carbamoyl)phenyl]-1-sulfamoyl-pyrrole-2-carboxylic acid] | 420 nM | > 256 µg/mL
17 | NS(=O)(=O)n1ccc(-c2ccc(C(=O)N3CCNCC3)cc2)c1C(=O)O [Example 27, 3-[4-(Piperazine-1-carbonyl)phenyl]-1-sulfamoyl-pyrrole-2-carboxylic acid] | 131 nM | > 256 µg/mL
18 | NC1CN(C(=O)c2cccc(-c3ccn(S(N)(=O)=O)c3C(=O)O)c2)C1 [Example 31, 3-[3-(3-Aminoazetidine-1-carbonyl)phenyl]-1-sulfamoyl-pyrrole-2-carboxylic acid] | 3330 nM | > 256 µg/mL

Row | SMILES | IC50 (NDM-1) | CC50 at 24 h [1]
19 | CCNCCNC(=O)c1ccc(-c2ccn(S(N)(=O)=O)c2C(=O)O)cc1 [Example 32, 3-[4-[2-(Ethylamino)ethylcarbamoyl]phenyl]-1-sulfamoyl-pyrrole-2-carboxylic acid] | 1060 nM | > 256 µg/mL
20 | NS(=O)(=O)n1ccc(-c2ccc(C(=O)NC3CNC3)cc2)c1C(=O)O [Example 35, 3-[4-(Azetidin-3-ylcarbamoyl)phenyl]-1-sulfamoyl-pyrrole-2-carboxylic acid] | 200 nM | > 256 µg/mL
21 | NS(=O)(=O)n1ccc(-c2ccc(C(=O)NC3CCNCC3)cc2)c1C(=O)O [Example 36, 3-[4-(4-Piperidylcarbamoyl)phenyl]-1-sulfamoyl-pyrrole-2-carboxylic acid hydrochloride] | 410 nM | > 256 µg/mL
22 | NS(=O)(=O)n1ccc(-c2ccc(C(=O)N[C@@H]3CCNC[C@H]3O)cc2)c1C(=O)O [Example 38, 3-[4-[[(3R,4R)-3-Hydroxy-4-piperidyl]carbamoyl]phenyl]-1-sulfamoyl-pyrrole-2-carboxylic acid] | 652 nM | > 256 µg/mL
23 | NS(=O)(=O)n1ccc(-c2ccc(C(=O)N[C@H]3[C@@H]4CNC[C@@H]43)cc2)c1C(=O)O [Example 43, 3-[4-[[(1S,5R)-3-Azabicyclo[3.1.0]hexan-6-yl]carbamoyl]phenyl]-1-sulfamoyl-pyrrole-2-carboxylic acid] | 273 nM | > 256 µg/mL
24 | NCC1CCN(C(=O)c2ccc(-c3ccn(S(N)(=O)=O)c3C(=O)O)cc2)CC1 [Example 44, 3-[4-[4-(Aminomethyl)piperidine-1-carbonyl]phenyl]-1-sulfamoyl-pyrrole-2-carboxylic acid] | 187 nM | > 256 µg/mL
25 | NCCNC(=O)c1cccc(-c2ccn(S(N)(=O)=O)c2C(=O)O)c1 [Example 47, 3-[3-(2-Aminoethylcarbamoyl)phenyl]-1-sulfamoyl-pyrrole-2-carboxylic acid hydrochloride] | 163 nM | > 256 µg/mL
26 | NS(=O)(=O)n1ccc(-c2ccc(C(=O)NCCCOS(=O)(=O)O)cc2)c1C(=O)O [Example 54, 1-Sulfamoyl-3-[4-(3-sulfooxypropylcarbamoyl)phenyl]pyrrole-2-carboxylic acid] |  | > 256 µg/mL
27 | NS(=O)(=O)n1ccc(CC2CCNCC2)c1C(=O)O [Example 57, 3-(4-Piperidylmethyl)-1-sulfamoyl-pyrrole-2-carboxylic acid hydrochloride] |  | > 256 µg/mL
28 | CC(=O)N1CCCC(c2ccn(S(N)(=O)=O)c2C(=O)O)C1 (stereo not shown) [Example 58, 3-[1-Acetyl-3-piperidyl]-1-sulfamoyl-pyrrole-2-carboxylic acid] | 433 nM | 
29 | CC(=O)N1CCC(c2ccn(S(N)(=O)=O)c2C(=O)O)C1 (stereo not shown) [Example 59, 3-[1-Acetylpyrrolidin-3-yl]-1-sulfamoyl-pyrrole-2-carboxylic acid] | 1610 nM | > 256 µg/mL
30 | CC(=O)N1CCC(Cc2ccn(S(N)(=O)=O)c2C(=O)O)CC1 [Example 62, 3-[(1-Acetyl-4-piperidyl)methyl]-1-sulfamoyl-pyrrole-2-carboxylic acid] |  | > 256 µg/mL
31 | NCC(=O)N1CCCC(c2ccn(S(N)(=O)=O)c2C(=O)O)C1 (stereo not shown) [Example 63, 3-[1-(2-Aminoacetyl)-3-piperidyl]-1-sulfamoyl-pyrrole-2-carboxylic acid] | 1760 nM | > 256 µg/mL
32 | N[C@@H](CO)C(=O)N1CCC(c2ccn(S(N)(=O)=O)c2C(=O)O)CC1 [Example 72, 3-[1-[(2S)-2-Amino-3-hydroxy-propanoyl]-4-piperidyl]-1-sulfamoyl-pyrrole-2-carboxylic acid] | 1570 nM | > 256 µg/mL
33 | NS(=O)(=O)n1ccc(C2CCN(C(=O)[C@@H]3CCCN3)CC2)c1C(=O)O [Example 73, 3-[1-[(2S)-Pyrrolidine-2 carbonyl]-4-piperidyl]-1-sulfamoyl-pyirole-2-carboxylic acid] | 568 nM | > 256 µg/mL
34 | NS(=O)(=O)n1ccc(C2CCN(C(=O)C3CNC3)CC2)c1C(=O)O [Example 74, 3-[1-(Azetidine-3-carbonyl)-4-piperidyl]-1-sulfamoyl-pyrrole-2-carboxylic acid] | 1550 nM | > 256 µg/mL
35 | N=C(N)NCC(=O)N1CCC(c2ccn(S(N)(=O)=O)c2C(=O)O)CC1 [Example 83, 3-[1-(2-Guanidinoacetyl)-4-piperidyl]-1-sulfamoyl-pyrrole-2-carboxylic acid] |  | > 256 µg/mL
